From US5502035A, “N-terminus modified analogs of LHRH” (Tap Holdings Inc., priority 1994, dated 1996) come the findings set out here.

The assay concerns the target T1, LHRH (Rattus norvegicus, UniProt P30969).
T1 construct: endogenous in cells; host or cells: rat pituitary cells (own knowledge of the cited Haviv 1989 method)
T1 sequence (P30969 1-327): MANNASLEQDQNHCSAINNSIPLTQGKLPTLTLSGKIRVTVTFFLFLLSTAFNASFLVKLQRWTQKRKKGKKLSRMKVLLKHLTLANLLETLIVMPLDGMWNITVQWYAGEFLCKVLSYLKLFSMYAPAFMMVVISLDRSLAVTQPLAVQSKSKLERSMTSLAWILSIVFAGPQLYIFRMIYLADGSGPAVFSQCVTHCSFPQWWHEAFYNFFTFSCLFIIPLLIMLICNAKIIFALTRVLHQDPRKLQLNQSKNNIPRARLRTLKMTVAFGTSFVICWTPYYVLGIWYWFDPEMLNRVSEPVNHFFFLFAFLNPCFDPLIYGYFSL
The experiment in a line: in vitro test for LHRH antagonist potency (pA2). It is filed as cell-based. The note with it: negative logarithm of the antagonist concentration required to shift the response curve produced by the agonist leuprolide to two-fold higher concentration. As for the experimental part: Representative compounds of the present invention were evaluated in an in vitro test for LHRH antagonist potency (pA2). The test employed the method detailed in F. Haviv, et al. J. Med. Chem., 32:2340-2344 (1989). The values of pA2 are the negative logarithms of the concentration of the particular antagonist test compound required to shift the response curve produced by the agonist leuprolide to two-fold higher concentration. (Leuprolide is the LHRH agonist having the structure 5-oxo-Pro^1 -His^2 -Trp^3 -Ser^4 -Tyr^5 -D-Leu^6 -Leu^7 -Arg^8 -Pro^9 -NHEt and is disclosed and claimed in U.S. Pat. No. 4,005,063.) Typically pA2 values of 9.5 or greater are indicative of good LHRH antagonist potency, with values of 10.0 or greater being preferred.

Starred links: 1 amine or outer side, 2 acyl side, 3 side chain; linkers in the order of their positions; H or OH if unused. Non-standard residues stand in square brackets, D forms with d. Residues, ends and D or L forms follow the SMILES beside them. Groups on a side chain read outwards from the residue. ξ: configuration not given here. *: point of attachment. Shikimoyl = O=C(C1=C[C@@H](O)[C@@H](O)[C@H](O)C1)*; ξTetrahydrofuran2carbonyl = O=C(C1CCCO1)*; dPhe(4-Cl) = N[C@H](Cc1ccc(Cl)cc1)C(=O)O; d2Nal = N[C@H](Cc1ccc2ccccc2c1)C(=O)O; Lys(iPr) = CC(C)NCCCC[C@H](N)C(=O)O; NMeY = CN[C@@H](Cc1ccc(O)cc1)C(=O)O; dCit = NC(=O)NCCC[C@@H](N)C(=O)O; d3Pal = N[C@H](Cc1cccnc1)C(=O)O; Suc = O=C(CCC(=O)[*:2])[*:1]; Nicotinoyl = O=C(c1cccnc1)*; Ava = NCCCCC(=O)O; GABA = NCCCC(=O)O; azaGly = NNC(=O)O

The term Kb denotes the equilibrium dissociation constant of an antagonist, usually derived from a functional assay.

In the case of `CC(C)C[C@H](NC(=O)[C@@H](CCCCNC(=O)c1cccnc1)NC(=O)[C@H](Cc1ccc(O)cc1)N(C)C(=O)[C@H](CO)NC(=O)[C@@H](Cc1cccnc1)NC(=O)[C@@H](Cc1ccc(Cl)cc1)NC(=O)[C@@H](Cc1ccc2ccccc2c1)NC(=O)CCCNC(=O)c1cccnc1)C(=O)N[C@@H](CCCCNC(C)C)C(=O)N1CCC[C@H]1C(=O)N[C@H](C)C(N)=O` [Example 6c, N-Nicotinyl-4Aminobutyryl-D2Nal-D4ClPhe-D3Pal-Ser-NMeTyr-DLys(N-epsilon-Nicotinyl) -Leu-Lys(N-epsilon-Isopropyl)-Pro-DAlaNH2] ({Nicotinoyl-GABA}-[d2Nal][dPhe(4-Cl)][d3Pal]S[NMeY][dK](Nicotinoyl)L[Lys(iPr)]P[dA]-NH2), the Kb is 0.0224 nM.
On to `CC(C)C[C@H](NC(=O)[C@@H](CCCCNC(=O)c1cccnc1)NC(=O)[C@H](Cc1ccc(O)cc1)N(C)C(=O)[C@H](CO)NC(=O)[C@@H](Cc1cccnc1)NC(=O)[C@@H](Cc1ccc(Cl)cc1)NC(=O)[C@@H](Cc1ccc2ccccc2c1)NC(=O)CCCNC(=O)C1=C[C@@H](O)[C@@H](O)[C@H](O)C1)C(=O)N[C@@H](CCCCNC(C)C)C(=O)N1CCC[C@H]1C(=O)N[C@H](C)C(N)=O` [Example 6d, N-Shikimyl-4-Aminobutyryl-D2Nal-D4ClPhe-D3Pal-Ser-NMeTyr-DLys(N-epsilon-Nicotinyl) -Leu-Lys(N-epsilon-Isopropyl)-Pro-DAlaNH2] ({Shikimoyl-GABA}-[d2Nal][dPhe(4-Cl)][d3Pal]S[NMeY][dK](Nicotinoyl)L[Lys(iPr)]P[dA]-NH2), for which the Kb was 0.0126 nM.
With `CC(C)C[C@H](NC(=O)[C@@H](CCCCNC(=O)c1cccnc1)NC(=O)[C@H](Cc1ccc(O)cc1)N(C)C(=O)[C@H](CO)NC(=O)[C@@H](Cc1cccnc1)NC(=O)[C@@H](Cc1ccc(Cl)cc1)NC(=O)[C@@H](Cc1ccc2ccccc2c1)NC(=O)CCCCNC(=O)C1=C[C@@H](O)[C@@H](O)[C@H](O)C1)C(=O)N[C@@H](CCCCNC(C)C)C(=O)N1CCC[C@H]1C(=O)N[C@H](C)C(N)=O` [Example 6f, N-Shikimyl-5Aminovaleryl-D2Nal-D4ClPhe-D3Pal-Ser-NMeTyr-DLys(N-epsilon-Nicotinyl) -Leu-Lys(N-epsilon-Isopropyl)-Pro-DAlaNH2] ({Shikimoyl-Ava}-[d2Nal][dPhe(4-Cl)][d3Pal]S[NMeY][dK](Nicotinoyl)L[Lys(iPr)]P[dA]-NH2) the figure was 0.0257 nM; with `CC(C)C[C@H](NC(=O)[C@@H](CCCCNC(=O)c1cccnc1)NC(=O)[C@H](Cc1ccc(O)cc1)N(C)C(=O)[C@H](CO)NC(=O)[C@@H](Cc1cccnc1)NC(=O)[C@@H](Cc1ccc(Cl)cc1)NC(=O)[C@@H](Cc1ccc2ccccc2c1)NC(=O)[C@@H](CO)NC(=O)C1=C[C@@H](O)[C@@H](O)[C@H](O)C1)C(=O)N[C@@H](CCCCNC(C)C)C(=O)N1CCC[C@H]1C(=O)N[C@H](C)C(N)=O` [Example 7, N-Shikimyl-DSer-D2Nal-D4ClPhe-D3Pal-Ser-NMeTyr-DLys(N-epsilon-Nicotinyl) -Leu-Lys(N-epsilon-Isopropyl)-Pro-DAlaNH2] (Shikimoyl-[dS][d2Nal][dPhe(4-Cl)][d3Pal]S[NMeY][dK](Nicotinoyl)L[Lys(iPr)]P[dA]-NH2), 0.0263 nM.
In the case of `CC(C)C[C@H](NC(=O)[C@@H](CCCCNC(=O)CNC(=O)c1cccnc1)NC(=O)[C@H](Cc1ccc(O)cc1)N(C)C(=O)[C@H](CO)NC(=O)[C@@H](Cc1cccnc1)NC(=O)[C@@H](Cc1ccc(Cl)cc1)NC(=O)[C@@H](Cc1ccc2ccccc2c1)NC(=O)CNC(=O)c1cccnc1)C(=O)N[C@@H](CCCCNC(C)C)C(=O)N1CCC[C@H]1C(=O)N[C@H](C)C(N)=O` [Example 8, N-Nicotinyl-Gly-D2Nal-D4ClPhe-D3Pal-Ser-NMeTyr-DLys(Gly-Nicotinyl)-Leu-Lys (N-epsilon-Isopropyl)-Pro-DAlaNH2] (Nicotinoyl-G[d2Nal][dPhe(4-Cl)][d3Pal]S[NMeY][dK]([Gly-Nicotinoyl])L[Lys(iPr)]P[dA]-NH2) it was 0.0204 nM; in that of `CC(C)C[C@H](NC(=O)[C@@H](CCCCNC(=O)NNC(=O)c1cccnc1)NC(=O)[C@H](Cc1ccc(O)cc1)N(C)C(=O)[C@H](CO)NC(=O)[C@@H](Cc1cccnc1)NC(=O)[C@@H](Cc1ccc(Cl)cc1)NC(=O)[C@@H](Cc1ccc2ccccc2c1)NC(=O)CNC(=O)c1cccnc1)C(=O)N[C@@H](CCCCNC(C)C)C(=O)N1CCC[C@H]1C(=O)N[C@H](C)C(N)=O` [Example 9, N-Nicotinyl-Gly-D2Nal-D4ClPhe-D3Pal-Ser-NMeTyr-DLys(Azagly-Nicotinyl)-Leu-Lys(N-epsilon-Isopropyl) -Pro-DAlaNH2] (Nicotinoyl-G[d2Nal][dPhe(4-Cl)][d3Pal]S[NMeY][dK]([azaGly-Nicotinoyl])L[Lys(iPr)]P[dA]-NH2), 0.0347 nM; in that of `CC(C)C[C@H](NC(=O)[C@@H](CCCNC(N)=O)NC(=O)[C@H](Cc1ccc(O)cc1)N(C)C(=O)[C@H](CO)NC(=O)[C@@H](Cc1cccnc1)NC(=O)[C@@H](Cc1ccc(Cl)cc1)NC(=O)[C@@H](Cc1ccc2ccccc2c1)NC(=O)CNC(=O)C1CCCO1)C(=O)N[C@@H](CCCNC(=N)N)C(=O)N1CCC[C@H]1C(=O)N[C@H](C)C(N)=O` (stereo partly drawn) [Example 13a, N-(R,S)-Tetrahydro-Fur-2-oyl-Gly-D2Nal-D4ClPhe-D3Pal-Ser-NMeTyr-DCit-Leu-Arg-Pro-DAlaNH2] (ξTetrahydrofuran2carbonyl-G[d2Nal][dPhe(4-Cl)][d3Pal]S[NMeY][dCit]LRP[dA]-NH2), 0.00447 nM.
With `CC(C)C[C@H](NC(=O)[C@@H](CCCNC(N)=O)NC(=O)[C@H](Cc1ccc(O)cc1)N(C)C(=O)[C@H](CO)NC(=O)[C@@H](Cc1cccnc1)NC(=O)[C@@H](Cc1ccc(Cl)cc1)NC(=O)[C@@H](Cc1ccc2ccccc2c1)NC(=O)CNC(=O)C1=C[C@@H](O)[C@@H](O)[C@H](O)C1)C(=O)N[C@@H](CCCNC(=N)N)C(=O)N1CCC[C@H]1C(=O)N[C@H](C)C(N)=O` [Example 13b, N-Shikimyl-Gly-D2Nal-D4ClPhe-D3Pal-Ser-NMeTyr-DCit-Leu-Arg-Pro-DAlaNH2] (Shikimoyl-G[d2Nal][dPhe(4-Cl)][d3Pal]S[NMeY][dCit]LRP[dA]-NH2) the figure was 0.00955 nM; with `CC(C)C[C@H](NC(=O)[C@@H](CCCNC(N)=O)NC(=O)[C@H](Cc1ccc(O)cc1)N(C)C(=O)[C@H](CO)NC(=O)[C@@H](Cc1cccnc1)NC(=O)[C@@H](Cc1ccc(Cl)cc1)NC(=O)[C@@H](Cc1ccc2ccccc2c1)NC(=O)CNC(=O)c1cccnc1)C(=O)N[C@@H](CCCNC(=N)N)C(=O)N1CCC[C@H]1C(=O)N[C@H](C)C(N)=O` [Example 13c, N-Nicotinyl-Gly-D2Nal-D4ClPhe-D3Pal-Ser-NMeTyr-DCit-Leu-Arg-Pro-DAlaNH2] (Nicotinoyl-G[d2Nal][dPhe(4-Cl)][d3Pal]S[NMeY][dCit]LRP[dA]-NH2), 0.00355 nM; with `CC(C)C[C@H](NC(=O)[C@@H](CCCNC(N)=O)NC(=O)[C@H](Cc1ccc(O)cc1)N(C)C(=O)[C@H](CO)NC(=O)[C@@H](Cc1cccnc1)NC(=O)[C@@H](Cc1ccc(Cl)cc1)NC(=O)[C@@H](Cc1ccc2ccccc2c1)NC(=O)CNC(=O)CCC(=O)O)C(=O)N[C@@H](CCCNC(=N)N)C(=O)N1CCC[C@H]1C(=O)N[C@H](C)C(N)=O` [Example 13d, N-Succinyl-Gly-D2Nal-D4ClPhe-D3Pal-Ser-NMeTyr-DCit-Leu-Arg-Pro-DAlaNH2] (Suc-G[d2Nal][dPhe(4-Cl)][d3Pal]S[NMeY][dCit]LRP[dA]-NH2), 0.0407 nM.
Regarding `CC(C)C[C@H](NC(=O)[C@@H](CCCNC(N)=O)NC(=O)[C@H](Cc1ccc(O)cc1)N(C)C(=O)[C@H](CO)NC(=O)[C@@H](Cc1cccnc1)NC(=O)[C@@H](Cc1ccc(Cl)cc1)NC(=O)[C@@H](Cc1ccc2ccccc2c1)NC(=O)[C@@H](C)NC(=O)C1=C[C@@H](O)[C@@H](O)[C@H](O)C1)C(=O)N[C@@H](CCCNC(=N)N)C(=O)N1CCC[C@H]1C(=O)N[C@H](C)C(N)=O` [Example 13e, N-Shikimyl-DAla-D2Nal-D4ClPhe-D3Pal-Ser-NMeTyr-DCit-Leu-Arg-Pro-DAlaNH2] (Shikimoyl-[dA][d2Nal][dPhe(4-Cl)][d3Pal]S[NMeY][dCit]LRP[dA]-NH2), the antagonist dissociation constant (Kb) was 0.0316 nM.
In the case of `CC(C)C[C@H](NC(=O)[C@@H](CCCNC(N)=O)NC(=O)[C@H](Cc1ccc(O)cc1)N(C)C(=O)[C@H](CO)NC(=O)[C@@H](Cc1cccnc1)NC(=O)[C@@H](Cc1ccc(Cl)cc1)NC(=O)[C@@H](Cc1ccc2ccccc2c1)NC(=O)[C@@H](CO)NC(=O)C1=C[C@@H](O)[C@@H](O)[C@H](O)C1)C(=O)N[C@@H](CCCNC(=N)N)C(=O)N1CCC[C@H]1C(=O)N[C@H](C)C(N)=O` [Example 13f, N-Shikimyl-DSer-D2Nal-D4ClPhe-D3Pal-Ser-NMeTyr-DCit-Leu-Arg-Pro-DAlaNH2] (Shikimoyl-[dS][d2Nal][dPhe(4-Cl)][d3Pal]S[NMeY][dCit]LRP[dA]-NH2) it was 0.0178 nM.
